Measurements: patent US9629861B2, “Compositions and methods for treating bacterial infections using ceftaroline” (Forest Laboratories Holdings Limited, priority 2009, dated 2017)
Read-outs that look alike come from different tables or passages of the source.

What was measured:
[1] = human, in vivo
[2] = Example 4
Procedure: The 600-mg dose of ceftaroline fosamil infused over 60 minutes was split into two infusions in order to maintain the blind. For subjects with moderate renal impairment (30 ml/min<CrCl≦50 ml/min), as estimated by the Cockroft-Gault formula, unblinded pharmacy staff or unblinded study staff could adjust the dose of ceftaroline fosamil to two consecutive 200 mg infusions and readjust dose to two 300 mg infusions when renal function improved (CrCl>50 mL/min). The duration of treatment was between 5 to 7 days.
(§2) All subjects who received any amount of study drug were included in the safety analysis. Safety measures included monitoring for adverse events (AE) up to TOC and serious adverse events (SAE) through LFU; recording vital signs, physical examination, electrocardiogram (ECG), and clinical laboratory findings (clinical chemistry, hematology, and urinalysis), at prespecified times throughout the study.

CYP1A2 [3] = target: CYP1A2 (Homo sapiens, UniProt P05177); format: in vitro ADME; conditions: human liver microsomes
[4] = test system: Community-Acquired Bacterial Pneumonia (CABP); assay: Phase 3 CABP Study 1 (Example 5, adjunctive clarithromycin); format: in vivo, human; conditions: for Clinical Cure Rate at TOC / Treatment Difference in clinical cure rate at TOC: CABP Study 1; for Difference, clinical cure rate at EOT / Difference, favorable microbiological outcome at TOC: ceftaroline minus ceftriaxone, Example 5; for Treatment Difference in clinical cure rate at TOC: versus ceftriaxone
Procedure: In both treatment groups of CABP Study 1, two doses of oral clarithromycin (500 mg q12h), were administered as adjunctive therapy starting on Study Day 1. No adjunctive macrolide therapy was used in CABP Study 2. Patients with new or progressive pulmonary infiltrate(s) on chest radiography and clinical signs and symptoms consistent with CABP with the need for hospitalization and IV therapy were enrolled in the studies. Treatment duration was 5 to 7 days. A switch to oral therapy was not allowed. The Modified Intent-to-Treat Efficacy (MITTE) population included all patients who received any amount of study drug according to their randomized treatment group and were in PORT (Pneumonia Outcomes Research Team) Risk Class III or IV.
The primary efficacy endpoint was the clinical response at the Test of Cure (TOC) visit in the co-primary CE and MITTE populations (Table 4).
The secondary objective of the study was to evaluate the following: the clinical response at end-of-therapy (EOT); the microbiological favorable outcome rate at TOC; the overall (clinical and radiographic) success rate at TOC; the clinical and microbiological response by pathogen at TOC; clinical relapse at late follow-up (LFU); microbiological reinfection/recurrence at LFU; and safety.
The primary efficacy outcome measures were the per-subject clinical cure rate at TOC in the CE and MITTE Populations. Subjects were considered clinically cured at TOC if they had total resolution of all signs and symptoms of the baseline infection, or improvement of the infection such that no further antimicrobial therapy was necessary.
Non-inferiority was concluded if the lower limit of the 95% CI was higher than −10%.

MDRSP [5] = assay: Example 5 CAP study, outcome by baseline pathogen; format: in vivo, Streptococcus pneumoniae
Source text: (§1) Per-pathogen clinical cure rate and favorable microbiological outcome rate at TOC in the mMITTE and ME Populations;

S. pneumoniae [6] = assay: Example 5 CAP study, outcome by baseline pathogen; format: in vivo, Streptococcus pneumoniae
Source text: as §1

CYP3A4 = target: T1, CYP3A4 (Homo sapiens, UniProt P08684); assay: CYP inhibition in human liver microsomes; format: in vitro ADME
T1 construct: In vitro studies in human liver microsomes; from tissue; host or cells: human liver microsomes
T1 sequence (P08684 whole entry): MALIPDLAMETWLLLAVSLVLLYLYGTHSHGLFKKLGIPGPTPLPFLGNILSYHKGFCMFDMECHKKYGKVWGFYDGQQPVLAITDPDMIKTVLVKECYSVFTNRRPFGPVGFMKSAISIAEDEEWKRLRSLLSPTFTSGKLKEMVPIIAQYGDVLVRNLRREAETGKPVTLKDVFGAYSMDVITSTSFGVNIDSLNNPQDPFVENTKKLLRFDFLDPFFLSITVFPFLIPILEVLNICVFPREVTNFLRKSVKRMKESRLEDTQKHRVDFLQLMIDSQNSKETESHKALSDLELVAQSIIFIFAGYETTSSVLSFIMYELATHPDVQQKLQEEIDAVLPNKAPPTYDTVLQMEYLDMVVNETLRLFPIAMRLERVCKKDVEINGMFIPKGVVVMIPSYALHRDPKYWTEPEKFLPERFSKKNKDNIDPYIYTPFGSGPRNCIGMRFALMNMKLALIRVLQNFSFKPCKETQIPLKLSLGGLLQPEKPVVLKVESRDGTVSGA

CYP2B6 = target: T2, CYP2B6 (Homo sapiens, UniProt P20813); assay: CYP inhibition in human liver microsomes; format: in vitro ADME
T2 construct: In vitro studies in human liver microsomes; from tissue; host or cells: human liver microsomes
T2 sequence (P20813 whole entry): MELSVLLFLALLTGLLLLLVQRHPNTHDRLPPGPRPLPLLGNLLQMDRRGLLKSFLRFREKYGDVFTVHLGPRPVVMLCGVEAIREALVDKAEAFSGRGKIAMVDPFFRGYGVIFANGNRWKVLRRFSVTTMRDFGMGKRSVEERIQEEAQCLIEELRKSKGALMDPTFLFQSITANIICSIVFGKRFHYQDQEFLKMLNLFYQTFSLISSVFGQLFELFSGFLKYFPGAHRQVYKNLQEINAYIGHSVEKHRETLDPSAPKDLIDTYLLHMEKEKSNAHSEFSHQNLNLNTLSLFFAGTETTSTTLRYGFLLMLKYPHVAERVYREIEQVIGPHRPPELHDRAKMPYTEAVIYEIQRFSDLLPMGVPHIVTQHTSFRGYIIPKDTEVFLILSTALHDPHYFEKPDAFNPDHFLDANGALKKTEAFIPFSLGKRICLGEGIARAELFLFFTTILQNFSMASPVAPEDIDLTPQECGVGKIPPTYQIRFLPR

CYP2D6 = target: T3, CYP2D6 (Homo sapiens, UniProt P10635); assay: CYP inhibition in human liver microsomes; format: in vitro ADME
T3 construct: In vitro studies in human liver microsomes; from tissue; host or cells: human liver microsomes
T3 sequence (P10635 whole entry): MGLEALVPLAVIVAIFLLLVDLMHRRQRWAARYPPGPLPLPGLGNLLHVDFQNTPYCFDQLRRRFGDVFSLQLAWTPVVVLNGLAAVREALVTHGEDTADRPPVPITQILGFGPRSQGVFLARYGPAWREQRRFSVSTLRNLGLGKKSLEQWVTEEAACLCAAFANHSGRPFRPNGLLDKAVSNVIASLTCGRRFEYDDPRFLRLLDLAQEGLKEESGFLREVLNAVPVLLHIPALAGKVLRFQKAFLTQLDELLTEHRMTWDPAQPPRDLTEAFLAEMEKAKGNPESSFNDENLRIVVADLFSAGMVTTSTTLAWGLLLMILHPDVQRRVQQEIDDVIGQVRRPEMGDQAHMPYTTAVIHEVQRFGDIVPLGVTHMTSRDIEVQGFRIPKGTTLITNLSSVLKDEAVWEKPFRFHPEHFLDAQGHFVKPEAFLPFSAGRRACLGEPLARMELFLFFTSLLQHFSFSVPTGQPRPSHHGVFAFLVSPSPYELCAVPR

[7] = Example 5
Procedure: The 600-mg dose of ceftaroline fosamil infused over 60 minutes was split into two infusions in order to maintain the blind. For subjects with moderate renal impairment (30 mL/min<CrCl≦50 mL/min), as estimated by the Cockroft-Gault formula, unblinded pharmacy staff or unblinded study staff could adjust the dose of ceftaroline fosamil to two consecutive 200 mg infusions and readjust dose to two 300 mg infusions when renal function improved (CrCl>50 mL/min). The duration of treatment was between 5 to 7 days.
as §2

H. parainfluenzae = assay: Example 4 CAP study, outcome by baseline pathogen; format: in vivo
Source text: as §1

CYP2C8 = conditions: human hepatocytes
H. influenzae [8] = assay: Example 5 CAP study, outcome by baseline pathogen; format: in vivo
Source text: as §1

E. coli = assay: Example 5 CAP study, outcome by baseline pathogen; format: in vivo, Escherichia coli
Source text: as §1

[9] = Pharmacokinetics in adolescent patients; format: in vivo, human; conditions: adolescents 12 to 17; 8 mg/kg ceftaroline fosamil (or 600 mg if >75 kg)
Procedure: The pharmacokinetics of ceftaroline were evaluated in adolescent patients (ages 12 to 17) with normal renal function.

CYP2C9 = target: T4, CYP2C9 (Homo sapiens, UniProt P11712); assay: CYP inhibition in human liver microsomes; format: in vitro ADME
T4 construct: In vitro studies in human liver microsomes; from tissue; host or cells: human liver microsomes
T4 sequence (P11712 whole entry): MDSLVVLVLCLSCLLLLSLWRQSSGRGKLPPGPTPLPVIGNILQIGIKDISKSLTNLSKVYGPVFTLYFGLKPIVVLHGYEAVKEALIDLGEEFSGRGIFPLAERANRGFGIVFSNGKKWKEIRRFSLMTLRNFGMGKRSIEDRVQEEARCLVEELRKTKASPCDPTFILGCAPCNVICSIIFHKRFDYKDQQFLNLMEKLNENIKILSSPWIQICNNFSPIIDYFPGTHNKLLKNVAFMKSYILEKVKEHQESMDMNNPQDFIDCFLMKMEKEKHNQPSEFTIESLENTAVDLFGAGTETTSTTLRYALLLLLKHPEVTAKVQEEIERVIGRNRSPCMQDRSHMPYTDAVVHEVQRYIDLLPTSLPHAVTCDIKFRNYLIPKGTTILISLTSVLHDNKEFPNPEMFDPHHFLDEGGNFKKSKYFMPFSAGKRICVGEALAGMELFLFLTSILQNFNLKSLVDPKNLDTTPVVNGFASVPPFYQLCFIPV

[10] = human, in vivo; remark: listed apart in the source
[11] = Pharmacokinetics in healthy elderly subjects; format: in vivo, human; conditions: healthy elderly (≧65 years); 600 mg IV dose
K. pneumoniae = assay: Example 4 CAP study, outcome by baseline pathogen; format: in vivo, Klebsiella pneumoniae
Source text: as §1

H. influenzae [12] = assay: Example 4 CAP study, outcome by baseline pathogen; format: in vivo, Haemophilus influenzae
Source text: as §1

MDRSP [13] = assay: Example 4 CAP study, outcome by baseline pathogen; format: in vivo, Streptococcus pneumoniae
Source text: as §1

S. pneumoniae [14] = assay: Example 4 CAP study, outcome by baseline pathogen; format: in vivo, Streptococcus pneumoniae
Source text: as §1

S. aureus = assay: Example 5 CAP study, outcome by baseline pathogen; format: in vivo, Staphylococcus aureus
Source text: as §1

CYP1A2 [15] = conditions: human hepatocytes
CYP3A4/5 = assay: CYP induction in human hepatocytes; format: in vitro ADME
[16] = Safety population, listed as ceftaroline

Sequence of CYP1A2 (Homo sapiens, UniProt P05177) (P05177 whole entry): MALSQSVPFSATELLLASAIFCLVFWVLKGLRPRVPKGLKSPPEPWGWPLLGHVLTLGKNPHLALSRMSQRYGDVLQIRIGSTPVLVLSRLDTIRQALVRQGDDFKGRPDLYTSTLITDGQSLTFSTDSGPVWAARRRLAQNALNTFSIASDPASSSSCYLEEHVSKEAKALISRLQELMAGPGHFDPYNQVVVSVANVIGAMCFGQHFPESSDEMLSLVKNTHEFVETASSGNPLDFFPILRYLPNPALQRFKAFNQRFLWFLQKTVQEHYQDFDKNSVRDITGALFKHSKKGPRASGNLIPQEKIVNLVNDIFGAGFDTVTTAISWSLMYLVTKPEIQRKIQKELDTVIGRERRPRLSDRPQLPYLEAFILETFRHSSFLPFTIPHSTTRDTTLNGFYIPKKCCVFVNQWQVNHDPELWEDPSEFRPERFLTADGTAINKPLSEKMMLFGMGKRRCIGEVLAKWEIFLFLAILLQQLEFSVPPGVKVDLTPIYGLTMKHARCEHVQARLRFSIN

CCO/N=C(\C(=O)N[C@@H]1C(=O)N2C(C(=O)[O-])=C(Sc3nc(-c4cc[n+](C)cc4)cs3)CS[C@H]12)c1nsc(N)n1 [Ceftaroline]
exposure (Cmax and AUC) with concomitant inhibitors, inducers and substrates of cytochrome P450 [1]: did not identify any clinically relevant increases | TEAEs leading to premature discontinuation from study drug administration [2]: 0.6% | any study-drug-related TEAEs, subjects [2]: 12.4% | study-drug-related TEAE: headache [2]: 0.6% | Early withdrawal from study, reason Adverse Event ([2]; MITTE population): 8 (2.8) % | Any AE (TEAE), subjects ([2]; Safety population): 169 (53.7) % | COPD, subjects ([2]; Safety population): 8 (2.5) % | Diarrhea, subjects ([2]; Safety population): 12 (3.8) % | Headache, subjects ([2]; Safety population): 11 (3.5) % | Hypertension, subjects ([2]; Safety population): 8 (2.5) % | Hypokalemia, subjects ([2]; Safety population): 10 (3.2) % | Insomnia, subjects ([2]; Safety population): 10 (3.2) % | Nausea, subjects ([2]; Safety population): 6 ( 1.9) % | Phlebitis, subjects ([2]; Safety population): 10 (3.2) % | Pleural effusion, subjects ([2]; Safety population): 4 (1.3) % | Pneumonia, subjects ([2]; Safety population): 8 (2.5) % | Any AE (TEAE), subjects [2, 16]: 53.7% | inhibition of CYP1A2 (CYP1A2 [3]): neither ceftaroline fosamil nor ceftaroline inhibits | Clinical Cure Rate at TOC ([4]; CE population): 194 (86.6) % | Clinical Cure Rate at TOC ([4]; MITTE population): 244 (83.8) % | Difference, clinical cure rate at EOT ([4]; CE): 7.6% | Difference, favorable microbiological outcome at TOC ([4]; ME): 11.0% | Difference, clinical cure rate at EOT ([4]; MITTE): 6.3% | Difference, favorable microbiological outcome at TOC ([4]; mMITTE): 9.3% | Treatment Difference in clinical cure rate at TOC ([4]; CE): 8.4% | Treatment Difference in clinical cure rate at TOC ([4]; MITTE): 6.2% | Favorable Microbiological Outcome at TOC by Baseline Pathogen (MDRSP [5]; ME): 2/2 (100.0) % | Clinical Cure Rate at the TOC Visit by Baseline Pathogen (MDRSP [5]; ME population): 2/2 (100.0) % | Favorable Microbiological Outcome at TOC by Baseline Pathogen (S. pneumoniae [6]; ME): 21/24 (87.5) % | Clinical Cure Rate at the TOC Visit by Baseline Pathogen (S. pneumoniae [6]; ME population): 21/24 (87.5) % | inhibition of CYP3A4 (CYP3A4): neither ceftaroline fosamil nor ceftaroline inhibits | inhibition of CYP2B6 (CYP2B6): neither ceftaroline fosamil nor ceftaroline inhibits | inhibition of CYP2D6 (CYP2D6): neither ceftaroline fosamil nor ceftaroline inhibits | TEAEs leading to premature discontinuation from study drug administration [7]: 3.7% | subjects with SAEs considered possibly or probably related to study drug [7]: 2 subjects | Early withdrawal from study, reason Adverse Event ([7]; MITTE population): 5 (1.7) % | Any AE (TEAE), subjects ([7]; Safety population): 119 (39.9) % | Constipation, subjects ([7]; Safety population): 7 (2.3) % | Diarrhea, subjects ([7]; Safety population): 14 (4.7) % | Headache, subjects ([7]; Safety population): 10 (3.4) % | Hypertension, subjects ([7]; Safety population): 6 (2.0) % | Hypokalemia, subjects ([7]; Safety population): 4 (1.3) % | Insomnia, subjects ([7]; Safety population): 9 (3.0) % | Nausea, subjects ([7]; Safety population): 8 ( 2.7) % | Phlebitis, subjects ([7]; Safety population): 7 (2.3) % | Any AE (TEAE), subjects [7, 16]: 39.9% | Diarrhea, subjects [7, 16]: 4.7% | Headache, subjects [7, 16]: 3.4% | Favorable Microbiological Outcome at TOC by Baseline Pathogen (H. parainfluenzae; ME): 9/9 (100.0) % | Clinical Cure Rate at the TOC Visit by Baseline Pathogen (H. parainfluenzae; ME population): 9/9 (100.0) % | induction of CYP2C8 (CYP2C8): not inducers | Favorable Microbiological Outcome at TOC by Baseline Pathogen (H. influenzae [8]; ME): 2/3 (66.7) % | Clinical Cure Rate at the TOC Visit by Baseline Pathogen (H. influenzae [8]; ME population): 2/3 (66.7) % | Favorable Microbiological Outcome at TOC by Baseline Pathogen (E. coli; ME): 8/8 (100.0) % | Clinical Cure Rate at the TOC Visit by Baseline Pathogen (E. coli; ME population): 8/8 (100.0) % | mean AUC less than in adult subjects after 600 mg [9]: ~23% | mean Cmax less than in adult subjects after 600 mg [9]: about 10% | inhibition of CYP2C9 (CYP2C9): neither ceftaroline fosamil nor ceftaroline inhibits | AUC higher in female than in male subjects [10]: 6-15% | Cmax higher in female than in male subjects [10]: 17-22% | Cmax, elderly versus younger subjects [11]: not significantly different | Favorable Microbiological Outcome at TOC by Baseline Pathogen (K. pneumoniae; ME): 6/6 (100.0) % | Clinical Cure Rate at the TOC Visit by Baseline Pathogen (K. pneumoniae; ME population): 6/6 (100.0) % | Favorable Microbiological Outcome at TOC by Baseline Pathogen (H. influenzae [12]; ME): 13/15 (86.7) % | Clinical Cure Rate at the TOC Visit by Baseline Pathogen (H. influenzae [12]; ME population): 13/15 (86.7) % | Favorable Microbiological Outcome at TOC by Baseline Pathogen (MDRSP [13]; ME): 2/2 (100.0) % | Clinical Cure Rate at the TOC Visit by Baseline Pathogen (MDRSP [13]; ME population): 2/2 (100.0) % | Favorable Microbiological Outcome at TOC by Baseline Pathogen (S. pneumoniae [14]; ME): 35/39 (89.7) % | Clinical Cure Rate at the TOC Visit by Baseline Pathogen (S. pneumoniae [14]; ME population): 33/39 (84.6) % | Favorable Microbiological Outcome at TOC by Baseline Pathogen (S. aureus; ME): 8/10 (80.0) % | Clinical Cure Rate at the TOC Visit by Baseline Pathogen (S. aureus; ME population): 8/10 (80.0) % | induction of CYP1A2 (CYP1A2 [15]): not inducers | induction of CYP3A4/5 (CYP3A4/5): not inducers
